Results published in US20240261414A1, “FATTY ACID AMIDE HYDROLASE (FAAH) CLEAVABLE PRODRUGS OF BRAIN TARGETING ACTIVES AND COMBINATION WITH PERIPHERALLY RESTRICTED FAAH INHIBITORS” (Autobahn Therapeutics, Inc., priority 2021, published 2024).

The molecules below were run against T1, recombinant human FAAH (rhFAAH) (Homo sapiens, UniProt O00519) (assay: FAAH substrate evaluation (acid metabolite formation)). Conditions: 0.5 ng/L rhFAAH, 1 μM test compound, Tris-EDTA buffer pH 8.0, room temperature, 0-60 minutes.
T1 construct: purchased Cayman Chemical (Ann Arbor, MI, USA)
T1 sequence (O00519 1-579): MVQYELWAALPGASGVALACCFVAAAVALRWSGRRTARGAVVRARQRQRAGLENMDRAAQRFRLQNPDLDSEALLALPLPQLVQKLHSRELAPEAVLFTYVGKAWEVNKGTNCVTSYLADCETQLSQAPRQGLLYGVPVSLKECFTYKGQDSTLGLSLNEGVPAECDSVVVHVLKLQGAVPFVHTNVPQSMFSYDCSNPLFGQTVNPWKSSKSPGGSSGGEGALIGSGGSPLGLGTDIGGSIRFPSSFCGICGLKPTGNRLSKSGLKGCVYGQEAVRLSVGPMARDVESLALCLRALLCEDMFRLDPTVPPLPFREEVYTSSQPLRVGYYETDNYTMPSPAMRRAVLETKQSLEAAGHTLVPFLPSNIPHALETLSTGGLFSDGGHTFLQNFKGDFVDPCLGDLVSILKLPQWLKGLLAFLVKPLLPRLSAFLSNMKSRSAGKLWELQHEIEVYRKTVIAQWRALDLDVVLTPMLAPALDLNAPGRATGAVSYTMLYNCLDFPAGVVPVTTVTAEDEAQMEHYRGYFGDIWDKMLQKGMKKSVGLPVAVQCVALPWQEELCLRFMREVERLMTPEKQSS
Type: biochemical
Procedure: Purified recombinant human FAAH (rhFAAH) was purchased from Cayman Chemical (Ann Arbor, MI, USA). The total volume for each incubation was 400 μL containing a final 0.5 ng/L rhFAAH, 1 μM test compound, 1.25% ethanol or 1 μM PF-3845 (FAAH inhibitor), and 0.1% bovine serum albumin in Tris-EDTA buffer at pH 8.0). The positive control was LL-341001. The incubation was conducted at the room temperature. At 0, 5, 15, 30 and 60 minutes, an aliquot of 30 μL reaction mixtures was removed and mixed with 300 μL acetonitrile containing 5 ng/mL terfenadine and 10 ng/mL tolbutamide as internal standards to quench the reaction. The resulting mixture was centrifuged at 4000 rpm, 4° C. for 15 minutes, and 100 μL supernatant was ready for LC-MS/MS analysis to measure the formation of acid metabolite.
Acquity Ultra Performance LC system from Waters was used for sample analysis. The chromatography was performed on a reverse phase Kinetex 2.6 μm C18 column, 2.1×30 mm, 100 Å. The mobile phase A comprised of 0.1% formic acid in water and mobile phase B comprised of 0.1% formic acid in acetonitrile with a 2-min run time at the flow rate of 0.8 mL/min for the acid metabolite from positive control or a 1.5 min run time at the flow rate of 0.9 mL/min for the acid metabolite of test compounds. The mass spectrometer (API-5500 and API Q Trap 4000 Applied Biosystems/MDS SCIEX Instruments, Framingham, MA, USA) was operated under ESI positive or negative ion MRM mode.
The formation of acid metabolite was monitored and quantified using one calibration point of 1 μM. The observed rate constant (ke) for the acid metabolite formation was calculated by plotting the metabolite concentration versus time of incubation with the slope being ke and is shown in Table 2.
In the case of CCc1cc(/C(C)=N/OCc2ccc(C3CCCCC3)c(C(F)(F)F)c2)ccc1CN1CC(C(=O)NCCCF)C1 [Compound 39], the “ke (observed rate constant for the acid metabolite formation)” value (“ke” below) is reported as “B (ke is less than 1.0 and more than or equal to 0.1)”. In the case of Cc1noc(-c2ccc(CSCCC(=O)N[C@@H]3C[C@H]3F)cc2)c1NC(=O)OC(C)c1ccccc1Cl (stereo partly shown) [Compound 40], the “ke” value is reported as “C (ke is less than 0.1 and more than 0)”. With Cc1noc(-c2ccc(CSCCC(=O)Nc3cccnn3)cc2)c1NC(=O)O[C@H](C)c1ccccc1Cl [Compound 41] the “ke” value was “B (ke is less than 1.0 and more than or equal to 0.1)”. For O=C(C[C@H]1CCc2c1[nH]c1ccc(OCc3ccc(C4CCCC4)c(C(F)(F)F)c3)cc21)Nc1cccnn1 [Compound 43], the “ke” value was “B (ke is less than 1.0 and more than or equal to 0.1)”. With Cc1noc(-c2ccc(CSCCC(=O)Nc3ccncc3)cc2)c1NC(=O)OC(C)c1ccccc1Cl (stereo not shown) [Compound 44] the “ke” value was “B (ke is less than 1.0 and more than or equal to 0.1)”. With Cc1noc(-c2ccc(CSCCC(=O)N[C@H]3C[C@H]3F)cc2)c1NC(=O)OC(C)c1ccccc1Cl (stereo partly shown) [Compound 45] the “ke” value was “C (ke is less than 0.1 and more than 0)”. In the case of Cc1noc(-c2ccc(CSCCC(=O)NCCCF)cc2)c1NC(=O)O[C@H](C)c1ccccc1Cl [Compound 46], the “ke” value is reported as “C (ke is less than 0.1 and more than 0)”. For O=C(C[C@H]1CCc2c1[nH]c1ccc(OCc3ccc(C4CCCC4)c(C(F)(F)F)c3)cc21)Nc1ccncc1 [Compound 47], the “ke” value was “D (ke is 0)”. In the case of CCCCC[C@H](O)CC[C@@H]1[C@H]2Cc3cccc(OCC(=O)N[C@H]4C[C@@H]4F)c3C[C@H]2C[C@H]1O [Compound 48], the “ke” value is reported as “B (ke is less than 1.0 and more than or equal to 0.1)”. With CCCCC[C@H](O)CC[C@@H]1[C@H]2Cc3cccc(OCC(=O)N[C@H]4C[C@H]4F)c3C[C@H]2C[C@H]1O [Compound 49] the “ke” value was “C (ke is less than 0.1 and more than 0)”. In the case of O=C(Nc1ccnnc1)c1ccc2nc(-c3cc(Cl)cc(Cl)c3)oc2c1 [Compound 50], the “ke” value is reported as “A (ke is more than or equal to 1.0)”. In the case of COc1ccc(NC(=O)c2ccc3nc(-c4cc(Cl)cc(Cl)c4)oc3c2)cn1 [Compound 51], the “ke” value is reported as “A (ke is more than or equal to 1.0)”. O=C(Nc1cccnc1)c1ccc2nc(-c3cc(Cl)cc(Cl)c3)oc2c1 [Compound 52] was tested, and the “ke” value was “A (ke is more than or equal to 1.0)”. CCCCC[C@H](O)CC[C@@H]1[C@H]2Cc3cccc(OCC(=O)Nc4cccnn4)c3C[C@H]2C[C@H]1O [Compound 53] was tested, and the “ke” value was “A (ke is more than or equal to 1.0)”. CCCCC[C@H](O)CC[C@@H]1[C@H]2Cc3cccc(OCC(=O)Nc4ccncc4)c3C[C@H]2C[C@H]1O [Compound 55] was tested, and the “ke” value was “A (ke is more than or equal to 1.0)”. With O=C(Nc1ccncc1)c1ccc2nc(-c3cc(Cl)cc(Cl)c3)oc2c1 [Compound 57] the “ke” value was “D (ke is 0)”.
